# Test results: patent US9914730B2, “Azaquinazoline inhibitors of Atypical protein Kinase C” (Ignyta, Inc., priority 2012, dated 2018)
# Target: T1, full-length human PKCι (Homo sapiens, UniProt P41743)
# T1 construct: Recombinant, full-length human PKCι expressed in Sf21 insect cells is also commercially available; purchased; host or cells: Sf21 insect cells
# T1 sequence (P41743 1-596): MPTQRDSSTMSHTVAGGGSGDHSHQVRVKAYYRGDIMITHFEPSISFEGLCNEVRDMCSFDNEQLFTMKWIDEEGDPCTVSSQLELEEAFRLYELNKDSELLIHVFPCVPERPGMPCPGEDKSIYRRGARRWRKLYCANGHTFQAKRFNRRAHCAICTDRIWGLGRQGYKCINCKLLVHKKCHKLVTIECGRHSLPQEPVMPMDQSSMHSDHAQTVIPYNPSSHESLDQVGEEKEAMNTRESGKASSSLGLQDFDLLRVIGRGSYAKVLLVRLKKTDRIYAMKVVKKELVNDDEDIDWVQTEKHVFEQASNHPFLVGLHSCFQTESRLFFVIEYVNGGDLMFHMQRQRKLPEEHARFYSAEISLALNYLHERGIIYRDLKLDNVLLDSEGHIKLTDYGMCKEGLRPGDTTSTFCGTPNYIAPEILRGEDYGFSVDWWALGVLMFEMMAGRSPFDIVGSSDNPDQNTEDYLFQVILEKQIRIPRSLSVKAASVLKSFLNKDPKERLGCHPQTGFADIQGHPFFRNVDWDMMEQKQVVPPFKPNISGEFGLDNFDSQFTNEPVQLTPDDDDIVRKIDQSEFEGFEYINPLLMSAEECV
# Assay: PKCι IC50 IMAP assay, full-length PKCι at 150 μM ATP
# Type: biochemical
# Conditions: read-out: IC50 in IMAP assay against full length PKCi at 150 μM ATP
# In short: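 Dose-response IC50 values come from IMAP fluorescence polarisation after 60 min room-temperature turnover of 100 nM FAM peptide by ~15 pM insect-cell-expressed full-length PKCι at 150 μM ATP (5× KM^APP), normalised to no-compound and no-enzyme controls.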
row,IC50 [nM],SMILES
1,< 100,"Cc1ccc(Cl)c(Nc2cc(-c3nc(N4CCNCC4)c4c(C5CC5)cncc4n3)ccn2)c1 [Example 577, (2-Chloro-5-methyl-phenyl)-[4-(5-cyclopropyl-4-piperazin-1-yl-pyrido[3,4-d]pyrimidin-2-yl)-pyridin-2-yl]-Amine]"
2,< 100,"Fc1cccc(Nc2cc(-c3nc(N4CCNCC4)c4c(C5CC5)cncc4n3)ccn2)c1Cl [Example 578, (2-Chloro-3-fluoro-phenyl)-[4-(5-eyclopropyl-4-piperazin-1-yl-pyrido[3,4-d]pyrimidin-2-yl)-pyridin-2-yl]-Amine]"
3,10000 to 40000,"COc1cc2nccc(-c3nc(N4CCNCC4)c4c(C5CC5)cncc4n3)c2cc1OC [Example 579, 5-Cyclopropyl-2-(6,7-dimethoxy-quinolin-4-yl)-4-piperazin-1-yl-pyrido[3,4-d]pyrimidine]"
4,< 100,"COc1ccc(F)c(Nc2cc(-c3nc(N4CCNCC4)c4c(C5CC5)cncc4n3)ccn2)c1 [Example 580, [4-(5-Cyclopropyl-4-piperazin-1-yl-pyrido[3,4-d]pyrimidin-2-yl)-pyridin-2-yl]-(2-fluoro-5-methoxy-phenyl)-amine]"
5,< 100,"CC(=O)Nc1cc(-c2nc(N3CCNCC3)c3c(C4CC4)cncc3n2)ccn1 [Example 581, N-[4-(5-Cyclopropyl-4-piperazin-1-yl-pyrido[3,4-d]pyrimidin-2-yl)-pyridin-2-yl]-acetamide]"
6,< 100,"Nc1cc(-c2nc(N3CCNCC3)c3c(C4CC4)cncc3n2)ccn1 [Example 582, 4-(5-Cyclopropyl-4-piperazin-1-yl-pyrido[3,4-d]pyrimidin-2-yl)-pyridin-2-ylamine]"
7,< 100,"CC(C)C(=O)Nc1cc(-c2nc(N3CCNCC3)c3c(C4CC4)cncc3n2)ccn1 [Example 583, N-[4-(5-Cyclopropyl-4-piperazin-1-yl-pyrido[3,4-d]pyrimidin-2-yl)-pyridin-2-yl]-isobutyramide]"
8,< 100,"O=C(Nc1cc(-c2nc(N3CCNCC3)c3c(C4CC4)cncc3n2)ccn1)C1CC1 [Example 584, Cyclopropane-carboxylic acid [4-(5-cyclopropyl-4-piperazin-1-yl-pyrido[3,4-d]pyrimidin-2-yl)-pyridin-2-yl]-amide]"
9,< 100,"FC1(F)CC(Nc2cc(-c3nc(N4CCNCC4)c4c(C5CC5)cncc4n3)ccn2)C1 [Example 585, [4-(5-Cyclopropyl-4-piperazin-1-yl-pyrido[3,4-d]pyrimidin-2-yl)-pyridin-2-yl]-(3,3-difluorocyclo-butyl)-amine]"
10,< 100,"C[C@@H](Nc1cc(-c2nc(N3CCNCC3)c3c(C4CC4)cncc3n2)ccn1)c1ccccc1 [Example 586, [4-(5-Cyclopropyl-4-piperazin-1-yl-pyrido[3,4-d]pyrimidin-2-yl)-pyridin-2-yl]-((R)-1-phenyl-ethyl)-amine]"
11,< 100,"C[C@H](Nc1cc(-c2nc(N3CCNCC3)c3c(C4CC4)cncc3n2)ccn1)c1ccccc1 [Example 587, [4-(5-Cyclopropyl-4-piperazin-1-yl-pyrido[3,4-d]pyrimidin-2-yl)-pyridin-2-yl]-((S)-1-phenyl-ethyl)-amine]"
12,< 100,"COc1cccc(Nc2cc(-c3nc(N4CCNCC4)c4c(C5CC5)cncc4n3)ccn2)n1 [Example 588, [4-(5-Cyclopropyl-4-piperazin-1-yl-pyrido[3,4-d]pyrimidin-2-yl)-pyridin-2-yl]-(6-methoxy-pyridin-2-yl)-amine]"
13,< 100,"COc1cccc(Nc2cc(-c3nc(N4CCNCC4)c4c(C5CC5)cncc4n3)ccn2)c1F [Example 589, [4-(5-Cyclopropyl-4-piperazin-1-yl-pyrido[3,4-d]pyrimidin-2-yl)-pyridin-2-yl]-(2-fluoro-3-methoxy-phenyl)-amine]"
14,< 100,"COc1cc(F)c(Nc2cc(-c3nc(N4CCNCC4)c4c(C5CC5)cncc4n3)ccn2)c(F)c1 [Example 590, [4-(5-Cyclopropyl-4-piperazin-1-yl-pyrido[3,4-d]pyrimidin-2-yl)-pyridin-2-yl]-(2,6-difluoro-4-methoxy-phenyl)-amine]"
15,< 100,"COc1cccc(Nc2cc(-c3nc(N4CCNCC4)c4c(C5CC5)cncc4n3)ccn2)c1C [Example 591, [4-(5-Cyclopropyl-4-piperazin-1-yl-pyrido[3,4-d]pyrimidin-2-yl)-pyridin-2-yl]-(3-methoxy-2-methyl-phenyl)-amine]"
16,< 100,"COc1ccc(Cl)c(Nc2cc(-c3nc(N4CCNCC4)c4c(C5CC5)cncc4n3)ccn2)c1 [Example 592, (2-Chloro-5-methoxy-phenyl)-[4-(5-cyclopropyl-4-piperazin-1-yl-pyrido[3,4-d]pyrimidin-2-yl)-pyridin-2-yl]-amine]"
17,< 100,"Fc1ccc(Nc2cc(-c3nc(N4CCNCC4)c4c(C5CC5)cncc4n3)ccn2)cc1 [Example 594, [4-(5-Cyclopropyl-4-piperazin-1-yl-pyrido[3,4-d]pyrimidin-2-yl)-pyridin-2-yl]-(4-fluoro-phenyl)-amine]"
18,< 100,"FC(F)(F)c1ccc(Nc2cc(-c3nc(N4CCNCC4)c4c(C5CC5)cncc4n3)ccn2)cc1 [Example 595, [4-(5-Cyclopropyl-4-piperazin-1-yl-pyrido[3,4-d]pyrimidin-2-yl)-pyridin-2-yl]-(4-trifluoromethyl-phenyl)-amine]"
19,10000 to 40000,"FC(F)(F)c1ccc(Cl)c(Nc2cc(-c3nc(N4CCNCC4)c4c(C5CC5)cncc4n3)ccn2)c1 [Example 597, (2-Chloro-5-trifluoromethyl-phenyl)-[4-(5-cyclopropyl-4-piperazin-1-yl-pyrido[3,4-d]pyrimidin-2-yl)-pyridin-2-yl]-amine]"
20,< 100,"CC(C)(Nc1cc(-c2nc(N3CCNCC3)c3c(C4CC4)cncc3n2)ccn1)C(F)(F)F [Example 598, [4-(5-Cyclopropyl-4-piperazin-1-yl-pyrido[3,4-d]pyrimidin-2-yl)-pyridin-2-yl]-(2,2,2-trifluoro-1,1-dimethyl-ethyl)-amine]"
21,< 100,"Fc1ccc(Nc2cc(-c3nc(N4CCNCC4)c4c(C5CC5)cncc4n3)ccn2)cc1F [Example 599, [4-(5-Cyclopropyl-4-piperazin-1-yl-pyrido[3,4-d]pyrimidin-2-yl)-pyridin-2-yl]-(3,4-difluoro-phenyl)-amine]"
22,1000 to 10000,"Cn1ccc(Nc2cc(-c3nc(N4CCNCC4)c4c(C5CC5)cncc4n3)ccn2)n1 [Example 600, [4-(5-Cyclopropyl-4-piperazin-1-yl-pyrido[3,4-d]pyrimidin-2-yl)-pyridin-2-yl]-(l-methyl-1H-pyrazol-3-yl)-amine]"
23,< 100,"FC1CCC(Nc2cc(-c3nc(N4CCNCC4)c4c(C5CC5)cncc4n3)ccn2)CC1 (stereo not drawn) [Example 601, [4-(5-Cyclopropyl-4-piperazin-1-yl-pyrido[3,4-d]pyrimidin-2-yl)-pyridin-2-yl]-(4-fluorocyclohexyl)-amine]"
24,< 100,"Fc1cc(C2CC2)cc(F)c1Nc1cc(-c2nc(N3CCNCC3)c3c(C4CC4)cncc3n2)ccn1 [Example 603, (4-Cyclopropyl-2,6-difluoro-phenyl)-[4-(5-cyclopropyl-4-piperazin-1-yl-pyrido[3,4-d]pyrimidin-2-yl)-pyridin-2-yl]-amine]"
25,< 100,"Cc1cc(F)c(Nc2cc(-c3nc(N4CCNCC4)c4c(C5CC5)cncc4n3)ccn2)c(F)c1 [Example 604, [4-(5-Cyclopropyl-4-piperazin-1-yl-pyrido[3,4-d]pyrimidin-2-yl)-pyridin-2-yl]-(2,6-difluoro-4-methyl-phenyl)-amine]"
26,< 100,"Cn1cnc(Nc2cc(-c3nc(N4CCNCC4)c4c(C5CC5)cncc4n3)ccn2)c1 [Example 605, [4-(5-Cyclopropyl-4-piperazin-1-yl-pyrido[3,4-d]pyrimidin-2-yl)-pyridin-2-yl]-(1-methyl-1H-imidazol-4-yl)-amine]"
27,100 to 1000,"OCCN1CCN(c2nc(-c3ccnc(Nc4ccccc4)c3)nc3cncc(C4CC4)c23)CC1 [Example 606, 2-{4-[5-Cyclopropyl-2-(2-phenylamino-pyridin-4-yl)-pyrido[3,4-d]pyrimidin-4-yl]-piperazin-1-yl}-ethanol]"
28,100 to 1000,"OC[C@@H](O)CN1CCN(c2nc(-c3ccnc(Nc4ccccc4)c3)nc3cncc(C4CC4)c23)CC1 [Example 607, (S)-3-{4-[5-Cyclopropyl-2-(2-phenylamino-pyridin-4-yl)-pyrido[3,4-d]pyrimidin-4-yl]-piperazin-1-yl}-propane-1,2-diol]"
29,100 to 1000,"OC[C@H](O)CN1CCN(c2nc(-c3ccnc(Nc4ccccc4)c3)nc3cncc(C4CC4)c23)CC1 [Example 608, (R)-3-{4-[5-Cyclopropyl-2-(2-phenylamino-pyridin-4-yl)-pyrido[3,4-d]pyrimidin-4-yl]-piperazin-1-yl}-propane-1,2-diol]"
30,< 100,"COc1cc(Nc2cc(-c3nc(N4CCNCC4)c4c(C5CC5)cncc4n3)ccn2)ccc1C [Example 609, [4-(5-Cyclopropyl-4-piperazin-1-yl-pyrido[3,4-d]pyrimidin-2-yl)-pyridin-2-yl]-(3-methoxy-4-methyl-phenyl)-amine]"
